Experimental data from US4975451A, “Insecticidal cyclopropyl di(aryl) 2-butenes” (FMC Corporation, priority 1989, dated 1990).
≈ marks a conversion by molar mass, not a printed value.

Key:
cabbage looper = assay: Foliar evaluation, cabbage looper; format: in vivo; conditions: Trichoplusia ni, 48 hours, read-out: % Kill CL; for mortality at 100 ppm: rate 100 ppm; for mortality at 500 ppm: rate 500 ppm
Method: (§1) The insecticidal activity of the pyrethroid-like compounds of this invention as identified in Table 1, appended, was evaluated as follows:
(§2) Compounds within the scope of this invention were tested by foliar application at various concentrations in aqueous solutions containing 10% (volume/volume) acetone and water. Insect species utilized included the cabbage looper (Trichoplusia ni), Mexican bean beetle (Epilachna varivestis), pea aphid (Acryrthosiphon pisum), tobacco budworm (Heliothis virescens) and twospotted spider mite (Tetranychus urticae).
(§3) For all insects except the pea aphid, pinto beans (Phaseolus vulgaris) plants were treated with the test solutions. The test solutions were applied with a sprayer to the upper and lower surfaces of the plant leaves to runoff. The plants were then allowed to dry and were severed at the base of the stem before being placed in cups. Ten second instar individuals of the appropriate insect species, except the tobacco budworm, were placed in each cup and the cup covered. Tests with the tobacco budworm used four replicates with each replicate containing five second instar tobacco budworms. In all tests, mortality was read 48 hours later.

Mexican bean beetle = assay: Foliar evaluation, Mexican bean beetle; format: in vivo; conditions: Epilachna varivestis, 48 hours, read-out: % Kill MBB; for mortality at 100 ppm: rate 100 ppm
Method: as §1, §2, §3

pea aphid = assay: Foliar evaluation, pea aphid; format: in vivo, Acryrthosiphon pisum; conditions: Acyrthosiphon pisum, 48 hours, read-out: % Kill PA; for mortality at 100 ppm: rate 100 ppm; for mortality at 500 ppm: rate 500 ppm
Method: as §1, §2, §3
In the case of the pea aphid, fava bean (Vicia faba) was substituted for pinto bean. The treated, potted plants were placed in cups infested with ten individuals and covered. Mortality was read 48 hours later.

twospotted spider mite = assay: Foliar acaricidal test, twospotted spider mite (susceptible); format: in vivo; conditions: Tetranychus urticae, 48 hours, read-out: % Kill TSM-S; for mortality at 100 ppm: rate 100 ppm; for mortality at 500 ppm: rate 500 ppm
Method: as §1, §2
Acaricidal tests were performed using the following procedure: Leaves infested with adult twospotted spider mites (Tetranvchus urticae) were removed from culture plants and cut into segments containing 50-75 female mites. Each segment was placed on the upper leaf surface of a whole pinto bean plant. After the mites had migrated to the under surfaces of the leaves, the leaf segments used to infest were removed, and each plant was sprayed with test chemicals as described above. After the plants had dried, the entire plant and pot were placed in metal trays in a hood, a supply of water in the tray keeping the plants turgid. After 48 hours the living and dead mites were counted, and percent mortality was calculated.

Fish toxicity, tilapia = format: in vivo; conditions: water; Tilapia (Oreochromis niloticus), 48 hour test
Method: Compounds of the present invention were tested for toxicity to fish using one inch long tilapia (Oreochromis niloticus). Prior to the test the tilapia were acclimated for one week in an aquarium, during which time they were fed with a ration of rice bran and pelletized hog feed. The water in the aquarium was changed daily with distilled water.
Stock solutions of each of the test chemicals were prepared by dissolving the weighed technical material in acetone and adding distilled water to provide a 1% acetone in water solution.
The test solutions were prepared by diluting the appropriate amount of a stock solution to 25 mL with distilled water. The appropriate amount of stock solution was determined for the concentration required in a final volume of 800 mL of test solution. The test chemicals were tested in triplicate at concentrations ranging from 0.005 ppm to 20 ppm. The actual concentrations of the test chemicals needed to determine LC50 values were determined by fish toxicity-range of application studies prior to the LC50 test. Each 25 mL test chemical solution was added to a one liter aquarium containing 500 mL of 0.01% (v/v) ethylene glycol in water. The aquariums were shaken gently and then allowed to stand for one hour. After this time the tilapia were added by first placing five fish in a container with 275 mL of distilled water and then pouring the water and fish into each aquarium. The dead and live fish were counted after 24 and 48 hours. Any fish observed to be dead was removed from its aquarium immediately. Upon completion of the 48 hour test period, the lethal concentration of each compound tested that would give 50% mortality to the tilapia was determined.

tobacco budworm = assay: Foliar evaluation, tobacco budworm; format: in vivo; conditions: Heliothis virescens, 48 hours, read-out: % Kill TBW; for mortality at 100 ppm: rate 100 ppm; for mortality at 500 ppm: rate 500 ppm
Method: as §1, §2, §3

southern corn rootworm = assay: Soil evaluation, southern corn rootworm; format: in vivo, Diabrotica undecimounctata Howardi; conditions: rate 7.5 ppm, 48 hours, read-out: Initial % Kill SCR
Method: Soil evaluation of insecticidal activity of test compounds were conducted against the southern corn rootworm (Diabrotica undecimounctata Howardi). A 0.25 ml aliquot of a stock solution containing 64 mg of the candidate insecticide in 4.0 ml of acetone was pipetted into 41 mL of distilled water containing 0.1% octylphenoxypolyethoxyethanol emulsifier. […] In all cases, four mL of each test solution was pipetted into a 4 ounce specimen cup containing two two-day-old corn sprouts completely covered by 26 grams of dry sandy soil. The treated soil in each cup was allowed to stand uncovered in a hood to evaporate the acetone. Each cup was capped and the soil in each cup was mixed thoroughly. The cap of each cup was removed, and ten second instar southern corn rootworm larvae were added to each cup. The cups were each covered with lids perforated with two small holes to allow for ventilation. The cups were then held under fluorescent light (12 hours light: 12 hours dark) at 24°-26° C. for 48 hours. An untreated check and an appropriate standard were included in each test. Two replicates were run for each chemical treatment. The unaffected larvae from the soil of each cup were extracted by placing the contents of each cup into a modified Berlese polyethylene funnel fitted with an 18-mesh screen. The funnels were placed over containers of an aqueous detergent solution. Incandescent lights (100 watts) were placed 36 cm above the soil in each funnel. The heat from these lights slowly dried the soil causing larvae that had not been affected by the candidate insecticide to emerge from the soil and drop out of the funnel into the detergent solution. The percent mortality was determined by comparing the number of live larvae in the detergent solution with the total number of larvae infested during the initiation of the test. Percent mortality was determined in this manner for each concentration.

Row | Compound | LC50 at 48 h (Fish toxicity, tilapia) [µg/mL] | mortality at 100 ppm (cabbage looper) [%] | mortality at 100 ppm (Mexican bean beetle) [%] | mortality at 100 ppm (pea aphid) [%] | mortality at 100 ppm (tobacco budworm) [%] | mortality at 100 ppm (twospotted spider mite) [%] | mortality at 7.5 ppm (southern corn rootworm) [%] | also measured
1 | CCOc1ccc(C(C=CCc2cccc(-c3ccccc3)c2C)C2CC2)cc1 (stereo not shown) [Compound 9] |  |  |  |  |  |  |  | mortality at 1000 ppm (cabbage looper; rate 1000 ppm): 100%; mortality at 1000 ppm (Mexican bean beetle; rate 1000 ppm): 90%; mortality at 1000 ppm (pea aphid; rate 1000 ppm): 100%; mortality at 1000 ppm (twospotted spider mite; rate 1000 ppm): 100%
2 | CC1(C)C(C=C(Cl)Cl)C1C(=O)OC(C#N)c1cccc(Oc2ccccc2)c1 (stereo not shown) [cypermethrin, reference compound] | 0.02 (≈ 0.048 µM) |  |  |  |  |  |  | 
3 | Clc1ccc(C(C=CCc2cccc(Oc3ccccc3)c2)C2CC2)cc1 (stereo not shown) [Compound 1] | 3 to 5 (≈ 8 to 13.3 µM) | 100 | 100 | 75 | 100 | 2 | 45 | 
4 | FC(F)(F)Oc1ccc(C(C=CCc2cccc(Oc3ccccc3)c2)C2CC2)cc1 (stereo not shown) [Compound 5] | 1 to 3 (≈ 2.36 to 7.07 µM) | 85 | 100 | 100 | 80 | 100 | 50 | 
5 | FC(F)(F)c1ccc(C(C=CCc2cccc(Oc3ccccc3)c2)C2CC2)cc1 (stereo not shown) [Compound 3] | 5 to 7.5 (≈ 12.2 to 18.4 µM) | 90 | 100 | 45 | 100 | 90 | 60 | 
6 | Cc1c(CC=CC(c2ccc(OCC3CC3)cc2)C2CC2)cccc1-c1ccccc1 (stereo not shown) [Compound 8] |  |  |  |  |  |  |  | mortality at 500 ppm (cabbage looper): 100%; mortality at 500 ppm (pea aphid): 5%; mortality at 500 ppm (tobacco budworm): 22%; mortality at 500 ppm (twospotted spider mite): 0%
7 | Fc1ccc(CC=CC(c2ccc(C(F)(F)F)cc2)C2CC2)cc1Oc1ccccc1 (stereo not shown) [Compound 4] |  | 100 | 100 | 90 | 100 | 90 |  | 
8 | Cc1c(CC=CC(c2ccc(Cl)cc2)C2CC2)cccc1-c1ccccc1 (stereo not shown) [Compound 7] |  |  |  |  |  |  | 50 | mortality at 500 ppm (cabbage looper): 100%; mortality at 500 ppm (Mexican bean beetle; rate 500 ppm): 100%; mortality at 500 ppm (pea aphid): 60%; mortality at 500 ppm (tobacco budworm): 100%; mortality at 500 ppm (twospotted spider mite): 7%
9 | Fc1ccc(CC=CC(c2ccc(Cl)cc2)C2CC2)cc1Oc1ccccc1 (stereo not shown) [Compound 2, 1-cyclopropyl-1-(4-chlorophenyl)-4-(4-fluoro-3-phenoxyphenyl)-2-butene] | 7.5 to 10 (≈ 19.1 to 25.5 µM) | 100 | 100 | 80 | 100 | 0 | 45 | 
10 | Fc1ccc(CC=CC(c2ccc(OC(F)(F)F)cc2)C2CC2)cc1Oc1ccccc1 (stereo not shown) [Compound 6, 1-cyclopropyl-1-(4-trifluoromethoxyphenyl)-4-(4-fluoro-3-phenoxyphenyl)-2-butene] | 9 (≈ 20.3 µM) | 100 | 100 | 85 | 100 | 99 | 70 | 
